Measured values: PMC10762035, “Molecular basis of human trace amine-associated receptor 1 activation” (Nature Communications, 2024)
Changes are numbered by the printed parent chain. Several values for one entry are separate records, joined by “and”; a condition that tells them apart may be missing. Equal entries are not always repeated. Where two headings read alike, the source gives them in different places.

What was measured:
Format in all cases: cell-based
hTA1 C178S = target: T1, hTA1 C178S (Homo sapiens, UniProt Q96RJ0, C178S); assay: GloSensor cAMP accumulation assay, C178S mutant; conditions: for C178S - Normalized Luminescence Counts (N=2): log[Compound], single replicates
T1 construct: expressed in transfected cells; host or cells: HEK293T
T1 sequence (Q96RJ0 1-339 C178S): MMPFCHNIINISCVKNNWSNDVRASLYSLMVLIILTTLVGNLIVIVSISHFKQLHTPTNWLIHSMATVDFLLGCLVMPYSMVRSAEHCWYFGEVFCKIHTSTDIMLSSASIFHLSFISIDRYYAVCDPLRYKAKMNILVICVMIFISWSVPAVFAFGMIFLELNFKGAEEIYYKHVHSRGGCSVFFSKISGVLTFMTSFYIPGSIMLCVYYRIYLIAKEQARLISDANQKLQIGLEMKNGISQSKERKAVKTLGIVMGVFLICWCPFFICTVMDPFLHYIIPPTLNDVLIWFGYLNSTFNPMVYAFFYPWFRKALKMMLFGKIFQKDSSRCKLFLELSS

hTA1 R83H = target: T2, hTA1 R83H (Homo sapiens, UniProt Q96RJ0, R83H); assay: GloSensor cAMP accumulation assay, R83H mutant;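 further: cells transiently co-expressing hTA1 and a cAMP GloSensor, luminescence read 30 min after agonist addition at room temperature, concentration–response fitted by non-linear regression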
T2 construct: expressed in transfected cells; host or cells: HEK293T
T2 sequence (Q96RJ0 1-339 R83H): T1 sequence (Q96RJ0 1-339 C178S) with R83H, S178C

hTA1 C88/178S = target: T3, hTA1 C88/178S (Homo sapiens, UniProt Q96RJ0, C178S/C88S); assay: GloSensor cAMP accumulation assay, C88S/C178S double mutant; conditions: for Normalized Luminescence Counts (N=2): log[Compound], single replicate values
T3 construct: expressed in transfected cells; host or cells: HEK293T
T3 sequence (Q96RJ0 1-339 C88S/C178S): T1 sequence (Q96RJ0 1-339 C178S) with C88S

hTA1 T271N = target: T4, hTA1 T271N (Homo sapiens, UniProt Q96RJ0, T271N); assay: GloSensor cAMP accumulation assay, T271N mutant
T4 construct: expressed in transfected cells; host or cells: HEK293T
T4 sequence (Q96RJ0 1-339 T271N): T1 sequence (Q96RJ0 1-339 C178S) with S178C, T271N

[1] = C88S, C178S, each row is one independent experiment, 3 replicates

NCCc1ccc(O)cc1 [TYR, tyramine]
ΔpEC50 values (each mutant value - WT average), Mean (hTA1 C178S; C178S, each row one experiment (N=2), 3 replicates): 0.02169 and 0.1822
EC50 (hTA1 C178S; C178S, each row one experiment (N=2), 3 replicates, read-out: pEC50 values, Mean (converted)): 395 nM and 273 nM
EC50 (hTA1 C178S; C178S, n=2, read-out: EC50): 328 nM
Emax (hTA1 C178S; C178S, n=2, read-out: Span ± SEM (Emax normalized to β-PEA)): 98.4 ± 1.77%
Emax values, Mean (hTA1 C178S; C178S, β-PEA = 100, each row one experiment (N=2), 3 replicates): 100.127
Emax (hTA1 C178S; C178S, β-PEA = 100, each row one experiment (N=2), 3 replicates, read-out: Emax values, Mean): 96.6%
C178S - Normalized Luminescence Counts (N=2) (hTA1 C178S; M = -5): 91.979 and 95.8576 and 102.026 and 75.3904 and 102.974 and 107.581
C178S - Normalized Luminescence Counts (N=2) (hTA1 C178S; M = -5.522): 87.8668 and 77.3994 and 76.8387 and 82.4508 and 101.179 and 88.1949
C178S - Normalized Luminescence Counts (N=2) (hTA1 C178S; M = -6): 67.8199 and 64.4086 and 66.1843 and 84.2459 and 87.7162 and 94.2082
C178S - Normalized Luminescence Counts (N=2) (hTA1 C178S; M = -6.522): 42.5859 and 50.2963 and 40.4364 and 48.0464 and 47.119 and 50.6791
C178S - Normalized Luminescence Counts (N=2) (hTA1 C178S; M = -7): 17.0716 and 19.2212 and 22.0717 and 25.7583 and 28.0918 and 27.3439
C178S - Normalized Luminescence Counts (N=2) (hTA1 C178S; M = -7.522): 4.922 and 5.576 and 4.735 and 10.3511 and 8.496 and 10.8597
C178S - Normalized Luminescence Counts (N=2) (hTA1 C178S; M = -8): 0.8565 and 3.099 and 2.0247 and 3.141 and 5.295 and 4.428
C178S - Normalized Luminescence Counts (N=2) (hTA1 C178S; M = -8.522): -0.4052 and -0.03139 and 0.3892 and 0.9572 and 2.034 and 4.517
C178S - Normalized Luminescence Counts (N=2) (hTA1 C178S; M = -9): -1.013 and -1.2 and 0.1555 and -0.5985 and 0.02978 and 0.3589
C178S - Normalized Luminescence Counts (N=2) (hTA1 C178S; M = -9.522): -0.5454 and -1.1529 and -1.2 and -0.9575 and 1.615 and 1.376
C178S - Normalized Luminescence Counts (N=2) (hTA1 C178S; M = -10): -0.4052 and -0.07812 and -0.966 and 0.5982 and 1.645 and 1.346
C178S - Normalized Luminescence Counts (N=2) (hTA1 C178S; M = -10.522): -0.7791 and -0.3118 and -0.5921 and -2.214 and -0.2395 and -1.047
C178S - Normalized Luminescence Counts (N=2) (hTA1 C178S; M = -11): -0.8258 and -0.3585 and -1.106 and 0.08961 and 2.782 and 2.932
C178S - Normalized Luminescence Counts (N=2) (hTA1 C178S; M = -11.522): -0.1716 and 0.1555 and 0.1088 and 1.047 and 3.051 and 2.303
C178S - Normalized Luminescence Counts (N=2) (hTA1 C178S; M = -12): -0.9193 and -0.3118 and -0.6389 and 0.6281 and 2.423 and 2.214
C178S - Normalized Luminescence Counts (N=2) (hTA1 C178S; M = -12.522): 0.2023 and -0.07812 and -0.03139 and -1.077 and 1.944 and 2.603
ΔEmax values (each mutant value - WT average) (hTA1 R83H; R83H mutant minus WT average): -13.6885
EC50 (hTA1 R83H; R83H mutant, each line an independent experiment, 3 replicates, read-out: pEC50 values (Mean) (converted)): 5330 nM
Emax (hTA1 R83H; R83H mutant, β-PEA = 100, each line an independent experiment, 3 replicates, read-out: Emax values (Mean)): 85.3%
EC50 (hTA1 R83H; R83H, n=2, read-out: EC50): 31400 nM
EC50 (hTA1 C88/178S; C88/178S, n=2, read-out: EC50): 516 nM
ΔEmax values (each mutant value - WT average), Mean (hTA1 C88/178S; [1]): 5.171 and -4.429
ΔpEC50 values (each mutant value - WT average), Mean (hTA1 C88/178S; [1]): -0.1652 and -0.02439
EC50 (hTA1 C88/178S; C88S, C178S, each row is one independent experiment, 3 replicates, read-out: pEC50 values, Mean (converted)): 607 nM and 439 nM
Normalized Luminescence Counts (N=2) (hTA1 C88/178S; C88S, C178S, M = -5): 80.5108 and 118.73 and 96.3411 and 73.7167 and 119.633 and 101.508
Normalized Luminescence Counts (N=2) (hTA1 C88/178S; C88S, C178S, M = -5.522): 83.5638 and 94.9277 and 84.0161 and 70.847 and 65.5606 and 81.5707
Normalized Luminescence Counts (N=2) (hTA1 C88/178S; C88S, C178S, M = -6): 61.2318 and 70.3907 and 58.4615 and 74.6229 and 67.8262 and 50.6077
Normalized Luminescence Counts (N=2) (hTA1 C88/178S; C88S, C178S, M = -6.522): 35.2248 and 33.0764 and 35.0552 and 41.5453 and 51.665 and 30.8216
Normalized Luminescence Counts (N=2) (hTA1 C88/178S; C88S, C178S, M = -7): 17.4722 and 16.0588 and 18.7726 and 21.6082 and 20.853 and 15.4156
Normalized Luminescence Counts (N=2) (hTA1 C88/178S; C88S, C178S, M = -7.522): 4.582 and 7.069 and 6.674 and 4.541 and 4.692 and 3.332
Normalized Luminescence Counts (N=2) (hTA1 C88/178S; C88S, C178S, M = -8): 0.3416 and 1.077 and 0.3981 and 2.124 and 2.577 and 4.239
Normalized Luminescence Counts (N=2) (hTA1 C88/178S; C88S, C178S, M = -8.522): 0.2285 and 0.4547 and 1.1331 and 0.9158 and 0.6137 and 2.577
Normalized Luminescence Counts (N=2) (hTA1 C88/178S; C88S, C178S, M = -9): -0.6195 and -0.1107 and 0.3416 and -1.501 and -1.35 and 3.6345
Normalized Luminescence Counts (N=2) (hTA1 C88/178S; C88S, C178S, M = -9.522): -0.5065 and -0.563 and -0.05417 and -0.8967 (2×) and -1.652
Normalized Luminescence Counts (N=2) (hTA1 C88/178S; C88S, C178S, M = -10): -0.1107 and -0.9588 (2×) and -1.35 and -0.4436 and -0.1415
Normalized Luminescence Counts (N=2) (hTA1 C88/178S; C88S, C178S, M = -10.522): -0.6195 and -0.1672 and 0.0589 and -1.954 and -1.048 and 1.067
Normalized Luminescence Counts (N=2) (hTA1 C88/178S; C88S, C178S, M = -11): -0.05417 and 0.5677 and 0.3981 and -1.652 and -0.8967 and 0.7648
Normalized Luminescence Counts (N=2) (hTA1 C88/178S; C88S, C178S, M = -11.522): 0.7373 and 0.9635 and 0.285 and -0.8967 (2×) and 0.1606
Normalized Luminescence Counts (N=2) (hTA1 C88/178S; C88S, C178S, M = -12): -0.563 and 1.02 and 0.7939 and -0.1415 and -1.048 and 0.7648
Normalized Luminescence Counts (N=2) (hTA1 C88/178S; C88S, C178S, M = -12.522): 0.2285 and 0.8504 and 0.3981 and -0.8967 and -0.4436 and -1.199
Emax values, Mean (hTA1 C88/178S; C88S, C178S, normalized (β-PEA = 100), each row is one independent experiment, 3 replicates): 104.155 and 94.5547
Emax (hTA1 C88/178S; read-out: Span ± SEM (Emax normalized to β-PEA)): 99.3 ± 4.8%
EC50 (hTA1 T271N; T271N mutant, Figure 5B, each row one independent experiment (3 replicates), read-out: pEC50 values, Mean (converted)): 553 nM and 1350 nM
Emax values, Mean (hTA1 T271N; T271N mutant, Figure 5B, β-PEA = 100, each row one independent experiment (3 replicates)): 98.6225
Emax (hTA1 T271N; T271N mutant, Figure 5B, β-PEA = 100, each row one independent experiment (3 replicates), read-out: Emax values, Mean): 106%
EC50 (hTA1 T271N; T271N, n=2, read-out: EC50): 863 nM
Emax (hTA1 T271N; T271N, n=2, read-out: Span ± SEM (Emax normalized to β-PEA)): 103 ± 3.93%
